From patent publication US20110053916A1 (Vertex Pharmaceuticals Incorporated, priority 2009, published 2011) come the findings set out here.

SMILES strings stand for the structures. Bounds are passed on as bounds.

The term Ki denotes the equilibrium dissociation constant of an inhibitor or competing ligand from its target.

For the test, the target named is T1, PknB (Mycobacterium tuberculosis, UniProt P9WI81).
T1 construct: made in house
The experiment in a line: biochemical. The following applies: 3 nM PknB, 6 uM GarA, 3 μM ATP, 30 min, competitive tight-binding fit, several symbols in a cell = repeat determinations; for Ki: read-out: Ki Values. The arrangement: species or system M. tuberculosis.

T1 sequence (P9WI81 whole entry): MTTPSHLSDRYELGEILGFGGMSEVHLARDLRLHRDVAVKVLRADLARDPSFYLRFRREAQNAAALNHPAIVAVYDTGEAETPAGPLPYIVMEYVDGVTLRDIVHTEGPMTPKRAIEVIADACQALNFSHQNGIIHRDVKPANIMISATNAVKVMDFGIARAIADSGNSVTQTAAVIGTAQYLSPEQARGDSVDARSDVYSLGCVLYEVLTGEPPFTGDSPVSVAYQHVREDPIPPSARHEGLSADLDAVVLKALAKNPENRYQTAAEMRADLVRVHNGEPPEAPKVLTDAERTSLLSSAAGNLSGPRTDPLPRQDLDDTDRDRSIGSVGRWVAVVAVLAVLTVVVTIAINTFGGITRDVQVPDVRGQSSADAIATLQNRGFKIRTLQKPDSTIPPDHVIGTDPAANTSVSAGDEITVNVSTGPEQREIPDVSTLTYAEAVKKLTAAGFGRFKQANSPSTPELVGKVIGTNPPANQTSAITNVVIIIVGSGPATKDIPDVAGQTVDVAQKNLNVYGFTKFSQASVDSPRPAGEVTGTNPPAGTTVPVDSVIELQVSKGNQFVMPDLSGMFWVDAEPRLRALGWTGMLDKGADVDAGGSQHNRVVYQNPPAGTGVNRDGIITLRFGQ

On to `C[C@@H]1C[C@H]1c1cc(Nc2nc(-c3ccc(S(N)(=O)=O)s3)ncc2Cl)n[nH]1` (relative stereo) [Compound 320, 5-(5-chloro-4-(5-(trans-2-methylcyclopropyl)-1H-pyrazol-3-ylamino)pyrimidin-2-yl)thiophene-2-sulfonamide], for which the Ki fell in the range of 1 to 10 nM. Still for that read-out and setting: the result for `C#Cc1cnc(N2CC[C@H](NC(C)=O)C2)nc1Nc1cc(C2CC2)n[nH]1` (stereo in doubt) [Compound 195, N-[1-[4-[(5-cyclopropyl-2H-pyrazol-3-yl)amino]-5-ethynyl-pyrimidin-2-yl]pyrrolidin-3-yl]acetamide] reads 2000 to 4000 nM.

In the case of `C#Cc1cnc(-c2ccc([C@@H](O)C(C)C)s2)nc1Nc1cc(C2CC2)n[nH]1` (stereo in doubt) [Compound 210, 1-[5-[4-[(5-cyclopropyl-2H-pyrazol-3-yl)amino]-5-ethynyl-pyrimidin-2-yl]-2-thienyl]-2-methyl-propan-1-ol], the inhibition constant Ki lay within 10 to 50 nM. For `C#Cc1cnc(-c2ccc([C@@H](O)CCC)s2)nc1Nc1cc(C2CC2)n[nH]1` (stereo in doubt) [Compound 211, 1-[5-[4-[(5-cyclopropyl-2H-pyrazol-3-yl)amino]-5-ethynyl-pyrimidin-2-yl]-2-thienyl]butan-1-ol], the “Ki Values” is “A**, A*, A*”. Consider `c1ccc(-c2nccc(Nc3cc(C4CC4)n[nH]3)n2)cc1` [Compound 2, N-(5-cyclopropyl-2H-pyrazol-3-yl)-2-phenyl-pyrimidin-4-amine], for which the inhibition constant Ki was in the range of 50 to 100 nM. The same measure, in the same setting: the result for `CC(=O)Nc1cnc(-c2ccccc2)nc1Nc1cc(C2CC2)n(C(C)=O)n1` [Compound 3, N-[4-[(1-acetyl-5-cyclopropyl-pyrazol-3-yl)amino]-2-phenyl-pyrimidin-5-yl]acetamide] reads > 4000 nM; that for `CC(=O)n1nc(Nc2nc(-c3ccccc3)ncc2N)cc1C1CC1` [Compound 4, 1-[3-[(5-amino-2-phenyl-pyrimidin-4-yl)amino]-5-cyclopropyl-pyrazol-1-yl]ethanone], 100 to 500 nM. As for `Nc1cnc(-c2ccccc2)nc1Nc1cc(C2CC2)[nH]n1` [Compound 5, N-(5-cyclopropyl-1H-pyrazol-3-yl)-2-phenylpyrimidine-4,5-diamine], the “Ki Values” is on record as “A*, A”. Turning to `O=[N+]([O-])c1cnc(-c2ccccc2)nc1Nc1cc(C2CC2)[nH]n1` [Compound 6, N-(5-cyclopropyl-1H-pyrazol-3-yl)-5-nitro-2-phenylpyrimidin-4-amine], the Ki was > 4000 nM. Take `Brc1c(C2CC2)n[nH]c1Nc1ccnc(-c2ccccc2)n1` [Compound 7, N-(4-bromo-5-cyclopropyl-2H-pyrazol-3-yl)-2-phenyl-pyrimidin-4-amine]: the Ki was > 4000 nM. Turning to `Brc1cnc(-c2ccccc2)nc1Nc1cc(C2CC2)n[nH]1` [Compound 8, 5-Bromo-N-(5-cyclopropyl-1H-pyrazol-3-yl)-2-phenylpyrimidin-4-amine], the Ki fell in the range of 100 to 500 nM. The same measure, in the same setting: the result for `CC#Cc1cnc(-c2ccccc2)nc1Nc1cc(C2CC2)n[nH]1` [Compound 9, N-(5-cyclopropyl-1H-pyrazol-3-yl)-2-phenyl-5-(prop-1-ynyl)pyrimidin-4-amine] reads > 4000 nM; that for `CC(=O)Nc1cnc(-c2ccccc2)nc1Nc1cc(C2CC2)[nH]n1` [Compound 10, N-(4-(5-cyclopropyl-1H-pyrazol-3-ylamino)-2-phenylpyrimidin-5-yl)acetamide], 1000 to 2000 nM; that for `C/C=C/c1cnc(-c2ccccc2)nc1Nc1cc(C2CC2)[nH]n1` [Compound 11, (E)-N-(5-cyclopropyl-1H-pyrazol-3-yl)-2-phenyl-5-(prop-1-enyl)pyrimidin-4-amine], 100 to 500 nM.

As to `c1cc(Nc2cc(C3CC3)[nH]n2)nc(Nc2ccc3[nH]ncc3c2)n1` [Compound 13, N4-(5-cyclopropyl-1H-pyrazol-3-yl)-N2-(1H-indazol-5-yl)pyrimidine-2,4-diamine], the Ki is 10 to 50 nM. Turning to `CS(=O)(=O)c1ccc(-c2nccc(Nc3cc(C4CC4)[nH]n3)n2)cc1` [Compound 15, N-(5-cyclopropyl-1H-pyrazol-3-yl)-2-(4-(methylsulfonyl)phenyl)pyrimidin-4-amine], the “Ki Values” is reported as “A*, A”. As to `CS(=O)(=O)c1ccc(-c2ncc(F)c(Nc3cc(C4CC4)[nH]n3)n2)cc1` [Compound 16, N-(5-cyclopropyl-1H-pyrazol-3-yl)-5-fluoro-2-(4-methylsulfonylphenyl)-pyrimidin-4-amine], the “Ki Values” was “A*, A”. Turning to `N#CCc1ccc(-c2nccc(Nc3cc(C4CC4)[nH]n3)n2)cc1` [Compound 17, 2-(4-(4-(5-cyclopropyl-1H-pyrazol-3-ylamino)pyrimidin-2-yl)phenyl)acetonitrile], the Ki was 10 to 50 nM. On the same count and under the same terms, the value for `Cc1cnc(-c2ccc(S(C)(=O)=O)cc2)nc1Nc1cc(C2CC2)[nH]n1` [Compound 20, N-(5-cyclopropyl-1H-pyrazol-3-yl)-5-methyl-2-(4-(methylsulfonyl)phenyl)pyrimidin-4-amine] was 100 to 500 nM. On to `OCc1ccc(-c2nccc(Nc3cc(C4CC4)[nH]n3)n2)s1` [Compound 22, (5-(4-(5-cyclopropyl-1H-pyrazol-3-ylamino)pyrimidin-2-yl)thiophen-2-yl)methanol], for which the Ki fell in the range of 10 to 50 nM.

As to `CS(=O)(=O)c1ccc(-c2ncc(Cl)c(Nc3cc(C4CC4)[nH]n3)n2)cc1` [Compound 23, 5-chloro-N-(5-cyclopropyl-1H-pyrazol-3-yl)-2-(4-methylsulfonylphenyl)-pyrimidin-4-amine], the “Ki Values” is given as “A, B**”. `Cc1cnc(-c2ccc(CC#N)cc2)nc1Nc1cc(C2CC2)[nH]n1` [Compound 24, 2-(4-(4-(5-cyclopropyl-1H-pyrazol-3-ylamino)-5-methylpyrimidin-2-yl)phenyl)acetonitrile]: the Ki lay within 10 to 50 nM. On to `c1csc(-c2nccc(Nc3cc(C4CC4)[nH]n3)n2)c1` [Compound 27, N-(5-cyclopropyl-1H-pyrazol-3-yl)-2-(thiophen-2-yl)pyrimidin-4-amine], for which the Ki was 10 to 50 nM. On the same count and under the same terms, the value for `NS(=O)(=O)c1cccc(-c2nccc(Nc3cc(C4CC4)[nH]n3)n2)c1` [Compound 28, 3-[4-[(5-cyclopropyl-1H-pyrazol-3-yl)amino]pyrimidin-2-yl]benzenesulfonamide] was 10 to 50 nM; that for `Clc1cnc(-c2cccs2)nc1Nc1cc(C2CC2)[nH]n1` [Compound 29, 5-chloro-N-(5-cyclopropyl-1H-pyrazol-3-yl)-2-(thiophen-2-yl)pyrimidin-4-amine] was 50 to 100 nM; that for `NS(=O)(=O)c1cccc(-c2ncc(Cl)c(Nc3cc(C4CC4)[nH]n3)n2)c1` [Compound 30, 3-[5-chloro-4-[(5-cyclopropyl-1H-pyrazol-3-yl)amino]-pyrimidin-2-yl]benzenesulfonamide] was 10 to 50 nM. As for `Cc1cnc(-c2cccc(S(N)(=O)=O)c2)nc1Nc1cc(C2CC2)[nH]n1` [Compound 31, 3-[4-[(5-cyclopropyl-1H-pyrazol-3-yl)amino]-5-methyl-pyrimidin-2-yl]benzenesulfonamide], the Ki lay in the range of 10 to 50 nM.

Take `NC(=O)c1cc(-c2ncc(F)c(Nc3cc(C4CC4)[nH]n3)n2)ccc1Cl` [Compound 34, 2-chloro-5-[4-[(5-cyclopropyl-1H-pyrazol-3-yl)amino]-5-fluoro-pyrimidin-2-yl]-benzamide]: the Ki lay in the range of 10 to 50 nM. Regarding `NS(=O)(=O)c1cccc(-c2ncc(F)c(Nc3cc(C4CC4)[nH]n3)n2)c1` [Compound 35, 3-[4-[(5-cyclopropyl-1H-pyrazol-3-yl)amino]-5-fluoro-pyrimidin-2-yl]benzenesulfonamide], the Ki fell in the range of 10 to 50 nM. Regarding `Cc1cnc(-c2cccs2)nc1Nc1cc(C2CC2)[nH]n1` [Compound 38, N-(5-cyclopropyl-1H-pyrazol-3-yl)-5-methyl-2-(thiophen-2-yl)pyrimidin-4-amine], the “Ki Values” is reported as “A*, A”. As to `COC/C=C/c1cnc(-c2ccccc2)nc1Nc1cc(C2CC2)[nH]n1` [Compound 39, (E)-N-(5-cyclopropyl-1H-pyrazol-3-yl)-5-(3-methoxyprop-1-enyl)-2-phenylpyrimidin-4-amine], the Ki is 500 to 1000 nM.

On to `Cc1cnc(-c2ccc(S(N)(=O)=O)s2)nc1Nc1cc(C2CC2)[nH]n1` [Compound 40, 5-(4-(5-cyclopropyl-1H-pyrazol-3-ylamino)-5-methylpyrimidin-2-yl)thiophene-2-sulfonamide], for which the Ki is 1 to 10 nM. Regarding `NS(=O)(=O)c1ccc(-c2ncc(Cl)c(Nc3cc(C4CC4)[nH]n3)n2)s1` [Compound 42, 5-(5-chloro-4-(5-cyclopropyl-1H-pyrazol-3-ylamino)pyrimidin-2-yl)thiophene-2-sulfonamide], the Ki was in the range of 1 to 10 nM. Regarding `CCc1cnc(N2CCC(N3CCCCC3)CC2)nc1Nc1cc(C2CC2)[nH]n1` [Compound 44, N-(5-cyclopropyl-1H-pyrazol-3-yl)-5-ethyl-2-[4-(1-piperidyl)-1-piperidyl]-pyrimidin-4-amine], the “Ki Values” was “C, D”.

`CCc1cnc(N2CCCCC2)nc1Nc1cc(C2CC2)[nH]n1` [Compound 45, N-(5-cyclopropyl-1H-pyrazol-3-yl)-5-ethyl-2-(1-piperidyl)pyrimidin-4-amine]: the “Ki Values” was “C, D”. Take `CCc1cnc(N2CCN(C)CC2)nc1Nc1cc(C2CC2)[nH]n1` [Compound 46, N-(5-cyclopropyl-1H-pyrazol-3-yl)-5-ethyl-2-(4-methylpiperazin-1-yl)-pyrimidin-4-amine]: the Ki was > 4000 nM. `CN1CCN(c2nccc(Nc3cc(C4CC4)[nH]n3)n2)CC1` [Compound 47, N-(5-cyclopropyl-1H-pyrazol-3-yl)-2-(4-methylpiperazin-1-yl)-pyrimidin-4-amine]: the Ki is > 4000 nM. For the molecule `CNS(=O)(=O)c1ccc(-c2nccc(Nc3cc(C4CC4)[nH]n3)n2)s1` [Compound 48], the Ki is 1 to 10 nM. On the same count and under the same terms, the result for `COC(=O)CC1c2cnc(-c3ccccc3)nc2Nc2cc(C3CC3)nn21` (stereo not drawn) [Compound 49, methyl 2-(cyclopropyl-phenyl-BLAHyl)acetate] reads > 4000 nM.
